The values that follow come from ChEMBL document CHEMBL1201862, “PubChem BioAssay data set” (2004).

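Each compound was tested at five concentrations against cells in 96-well plates for 48 hours. GI50 is the concentration that inhibits growth by half.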 The source made the active and inactive calls. No stated cut-off is given here; in the data, active = GI50 up to about 1.1 µM and inactive = higher.

Among the test systems are KM-20L2; RXF 631; HOP-18; SNB-78; LXFL 529; M19-MEL; DLD-1; DMS-273; XF498.
Common to all, as to test: NCI-60 cell line screen, 48 h

For the compound `O=C(COc1ccc(/C=C/C(=O)c2ccc(Cl)cc2)cc1)Nc1c(Cl)cccc1Cl`, the GI50 in the experiment on KM-20L2 is > 100 µM (inactive); in the experiment with RXF 631 it was > 100 µM (inactive); in the experiment on HOP-18, > 100 µM (inactive); in the experiment with SNB-78 it was 58.9 µM (inactive); in the experiment on LXFL 529, 78.7 µM (inactive); with M19-MEL, > 100 µM (inactive). In addition, the GI50 in the experiment on DLD-1 is > 100 µM (inactive).
On to `CC(C)OC(=O)Nc1c([N+](=O)[O-])cc(C(F)(F)F)cc1[N+](=O)[O-]`, for which the GI50 in the experiment with DMS-273 is > 100 µM (inactive); with XF498, 28.1 µM (inactive); in the experiment with KM-20L2, > 100 µM (inactive); with HOP-18 it was 21.6 µM (inactive); in the experiment on SNB-78 it was > 50 µM (inactive); in the experiment on LXFL 529, > 100 µM (inactive). The GI50 with DLD-1 was > 100 µM (inactive).
Take `N#CC1(C#N)C2C=CC(c3coc4cccc2c34)C1(C#N)C#N` (centres undefined): the GI50 in the experiment with DMS-273 was 16.7 µM (inactive); in the experiment on XF498 it was 4.99 µM (inactive); in the experiment on KM-20L2, 18.5 µM (inactive); in the experiment with HOP-18, 16.6 µM (inactive); in the experiment with SNB-78, 15.8 µM (inactive); with LXFL 529 it was 8.87 µM (inactive). The GI50 was 3.05 µM (inactive) in the experiment with M19-MEL and 2.02 µM (inactive) in the experiment with DLD-1.
With `O=C1OC(O)c2cc3c(cc21)OCO3` (centres undefined), the GI50 in the experiment with DMS-273, with XF498, in the experiment with SNB-78, with LXFL 529, in the experiment with M19-MEL and in the experiment with DLD-1 was > 100 µM (inactive) in each case.
`COc1cc(CC(=O)c2cc3c(cc2-c2ccccc2)OCO3)cc(OC)c1OC`: the GI50 in the experiment on DMS-273 was 40.2 µM (inactive); in the experiment with XF498 it was 17.1 µM (inactive); in the experiment with KM-20L2, 96.6 µM (inactive); in the experiment with HOP-18, 16 µM (inactive); in the experiment with SNB-78 it was 25.8 µM (inactive); in the experiment on LXFL 529, 9.38 µM (inactive). Further, in the experiment on DLD-1, the GI50 is 81.1 µM (inactive).
`CC1=C(C)C(=O)c2c(cc3c4ccccc4ccn23)C1=O`: the GI50 in the experiment on DMS-273 is > 100 µM (inactive); with XF498 it was 63.8 µM (inactive); in the experiment with KM-20L2 it was > 100 µM (inactive); with HOP-18, > 100 µM (inactive); with M19-MEL, > 100 µM (inactive); with DLD-1 it was > 100 µM (inactive).
As to `C/C=C1\Oc2ccc(OC)cc2S1(=O)=O`, the GI50 with DMS-273, in the experiment with KM-20L2, in the experiment with HOP-18, with SNB-78, with LXFL 529 and in the experiment with M19-MEL was > 100 µM (inactive) each time. Also, the GI50 in the experiment on DLD-1 was > 100 µM (inactive).
On to `CCOC(=O)c1cc2c3c(c(O)c(OC)c2s1)N(C(=O)c1cc2c4c(c(O)c(OC)c2s1)N(C(C)=O)CC4)CC3`, for which the GI50 is 61.8 µM (inactive) in the experiment on DMS-273; 32.1 µM (inactive) with XF498; > 100 µM (inactive) in the experiment with KM-20L2; 9.08 µM (inactive) in the experiment with RXF 631; > 100 µM (inactive) in the experiment with HOP-18; > 100 µM (inactive) with SNB-78. For the same compound, the GI50 in the experiment with LXFL 529 was 93.3 µM (inactive); in the experiment on M19-MEL it was > 100 µM (inactive); in the experiment on DLD-1 it was > 100 µM (inactive).
Regarding `CC(C)CC1CC2C(=O)N(c3ccccc3)C(=O)C2c2[nH]c3ccccc3c21` (centres undefined), the GI50 in the experiment with DMS-273 is 26.9 µM (inactive); in the experiment with XF498 it was 20.3 µM (inactive); in the experiment with KM-20L2, > 100 µM (inactive); with RXF 631 it was 15.2 µM (inactive); with HOP-18 it was 11.4 µM (inactive); with SNB-78 it was > 74.3 µM (inactive). Moreover, the GI50 with LXFL 529 was 60 µM (inactive); in the experiment on M19-MEL, 34.2 µM (inactive); in the experiment with DLD-1, 29 µM (inactive).
As to `CC1(C)C(=O)C(O)=CC2C1=CCC1C2(C)C(=O)CC2(C)C(C(C)(O)C(=O)CC(O)C(C)(C)O)C(O)CC12C` (centres undefined), the GI50 was 2.85 µM (inactive) in the experiment with DMS-273; 3.28 µM (inactive) with XF498; 3.33 µM (inactive) in the experiment on KM-20L2; 2.51 µM (inactive) in the experiment on HOP-18; 3.78 µM (inactive) in the experiment with SNB-78; 3.64 µM (inactive) in the experiment with LXFL 529. The figures for the GI50 in the experiment on M19-MEL and with DLD-1 were 8.85 µM (inactive) and 3.19 µM (inactive), respectively.
Turning to `O=C1C2=C(c3ccccc31)C(c1ccccc1Cl)N1C(=O)CCSC1=N2` (centres undefined), the GI50 in the experiment with DMS-273 is > 100 µM (inactive); in the experiment on XF498 it was 79.3 µM (inactive); with KM-20L2 it was > 100 µM (inactive); in the experiment with RXF 631 it was > 100 µM (inactive); in the experiment on M19-MEL, > 100 µM (inactive); in the experiment on DLD-1, > 100 µM (inactive).
`C=C(CN(CC(=C)C(=O)c1ccccc1)C(C)(C)C)C(=O)c1ccccc1`: the GI50 with DMS-273 was 16.7 µM (inactive); in the experiment on XF498, 6.58 µM (inactive); in the experiment on KM-20L2 it was 18.7 µM (inactive); with HOP-18, 5.42 µM (inactive); with SNB-78 it was 25.5 µM (inactive); in the experiment on LXFL 529 it was 3.84 µM (inactive). The values for the GI50 with M19-MEL and with DLD-1 were 15.7 µM (inactive) and 2.9 µM (inactive), respectively.
Consider `COC1CCC(=C2C(=O)OC(C)(C)OC2=O)N1` (centres undefined), for which the GI50 in the experiment on DMS-273, in the experiment with XF498, in the experiment with KM-20L2, in the experiment on HOP-18, in the experiment on LXFL 529 and with M19-MEL was > 100 µM (inactive) throughout. The GI50 in the experiment with DLD-1 was > 100 µM (inactive).
As to `C=CCSc1ncnc2c1ncn2C1OC(CO)C(O)C1O` (centres undefined), the GI50 was 11.7 µM (inactive) in the experiment with DMS-273; > 100 µM (inactive) in the experiment with XF498; 55.7 µM (inactive) with KM-20L2; > 100 µM (inactive) in the experiment on HOP-18; > 100 µM (inactive) in the experiment on SNB-78; > 100 µM (inactive) in the experiment with M19-MEL. The GI50 in the experiment with DLD-1 was 2.75 µM (inactive).
Regarding `Cc1cc2c(=O)cc(-c3ccc(O)cc3)oc2c(C(=O)O)c1C`, the GI50 in the experiment on DMS-273, in the experiment on XF498, with KM-20L2, in the experiment on HOP-18, in the experiment on SNB-78 and in the experiment on LXFL 529 was > 100 µM (inactive) each time. Further, the GI50 with M19-MEL and with DLD-1 was > 100 µM (inactive) throughout.
As to `CCN(CC)c1ccc(Cl)c2c1C(O)(C(C)C)C2(C)C` (centres undefined), the GI50 with DMS-273 is 15.8 µM (inactive); with KM-20L2, 14 µM (inactive); in the experiment on HOP-18, 14 µM (inactive); in the experiment with SNB-78, 28.2 µM (inactive); in the experiment with LXFL 529, 17 µM (inactive); in the experiment with M19-MEL, 14.7 µM (inactive). In addition, the GI50 in the experiment on DLD-1 was 17.4 µM (inactive).
For `Nc1nc2c3nc(Nc4ccccc4)sc3nc(=S)n2c2sc(Nc3ccccc3)nc12`, the GI50 with DMS-273 is > 100 µM (inactive); in the experiment on XF498, 1.98 µM (inactive); in the experiment with KM-20L2, > 100 µM (inactive); in the experiment on HOP-18 it was 36.1 µM (inactive); in the experiment on SNB-78 it was 22.5 µM (inactive); in the experiment on LXFL 529, 4.18 µM (inactive). The GI50 with M19-MEL was 13.4 µM (inactive); with DLD-1, > 100 µM (inactive).
Turning to `Cc1c(C(=O)/C=C/C=C/c2ccccc2)[n+]([O-])c2ccccc2[n+]1[O-]`, the GI50 with DMS-273 was 32.2 µM (inactive); in the experiment on XF498, 35 µM (inactive); with KM-20L2, 38 µM (inactive); in the experiment on HOP-18, 45.2 µM (inactive); in the experiment on SNB-78 it was 42 µM (inactive); with LXFL 529, 18 µM (inactive). The GI50 in the experiment on M19-MEL is 34.3 µM (inactive); with DLD-1, 14.5 µM (inactive).
With `COc1cc(OC)c2c(=O)c3cccc([N+](=O)[O-])c3n(C)c2c1`, the GI50 in the experiment with DMS-273 was 60.3 µM (inactive); in the experiment on XF498, > 100 µM (inactive); in the experiment on KM-20L2, > 100 µM (inactive); in the experiment with RXF 631, 34.5 µM (inactive); with HOP-18, < 0.01 µM (active); in the experiment on SNB-78, > 100 µM (inactive). For the same compound, in the experiment on LXFL 529, the GI50 was > 100 µM (inactive).
As to `COc1cccc2c1C(=O)c1c(O)c3c(c(O)c1C2=O)C[C@@](O)(C(C)=O)C[C@@H]3OC1OC(C)C(O)C(N)C1Br` (some centres undefined), the GI50 is 0.0078 µM (active) in the experiment with DMS-273; 0.129 µM (active) with XF498; 0.232 µM (active) in the experiment on KM-20L2; 0.0404 µM (active) in the experiment with HOP-18; 0.105 µM (active) in the experiment with SNB-78; 0.0601 µM (active) in the experiment with LXFL 529. The GI50 with M19-MEL was 0.116 µM (active); with DLD-1 it was 0.0259 µM (active).
Regarding `Cc1ccc(-c2cc(-c3ccco3)nc(N)n2)o1`, the GI50 in the experiment with DMS-273, in the experiment with XF498, in the experiment on KM-20L2, in the experiment with SNB-78 and in the experiment on LXFL 529 was > 100 µM (inactive) throughout.
With `[O-][S+](Cc1ccccc1)c1nc2ccccc2nc1-c1cccs1` (centres undefined), the GI50 in the experiment with DMS-273 is 9.59 µM (inactive); in the experiment with XF498 it was 2.52 µM (inactive); with HOP-18, 15.9 µM (inactive); in the experiment with SNB-78, 22 µM (inactive); in the experiment with LXFL 529, 3.22 µM (inactive); in the experiment with M19-MEL, 5.77 µM (inactive). Further, in the experiment with DLD-1, the GI50 is 11 µM (inactive).
In the case of `Cc1ccc2c(c1)-c1c3c(nn1C)-c1ccccc1SC3O2` (centres undefined), the GI50 is 55.5 µM (inactive) in the experiment on DMS-273; 23.4 µM (inactive) with XF498; 87.7 µM (inactive) in the experiment with KM-20L2; 8.43 µM (inactive) in the experiment on HOP-18; > 100 µM (inactive) with SNB-78; 30.7 µM (inactive) in the experiment on LXFL 529. For the same compound, the GI50 was 81.3 µM (inactive) in the experiment on M19-MEL and > 100 µM (inactive) in the experiment with DLD-1.
Turning to `CC(C)(C)C1=CC(=C(P(=O)(O)O)P(=O)(O)O)C=C(C(C)(C)C)C1=O`, the GI50 with DMS-273, in the experiment on KM-20L2, with RXF 631, in the experiment on HOP-18, with SNB-78 and in the experiment with LXFL 529 was > 50 µM (inactive) throughout. The GI50 with M19-MEL and with DLD-1 was > 50 µM (inactive) each time.
For the compound `CC/C(=C(\c1ccccc1)c1ccc(OCC[N+](C)(C)C)cc1)c1ccccc1` [TAMOXIFEN METHYL IODIDE], the GI50 in the experiment on DMS-273 is 6.4 µM (inactive); in the experiment on KM-20L2 it was 15.7 µM (inactive); in the experiment with RXF 631 it was 19.6 µM (inactive); in the experiment on HOP-18 it was 13.1 µM (inactive); with SNB-78 it was 12.2 µM (inactive); in the experiment with LXFL 529, 10 µM (inactive). Besides, the GI50 with M19-MEL is 11.6 µM (inactive); with DLD-1, 15.6 µM (inactive).
